The values below come from patent US6716833B2, “Acetylenic α-amino acid-based sulfonamide hydroxamic acid tace inhibitors” (priority 1999, dated 2004).

Structures can show the parent of a compound that is named as a salt. Where two headings read alike, the source gives them in different places. A value given as a limit tells only on which side of the number the result lay.

The IC50 is the concentration at which inhibition is half-maximal. As a reminder, the inhibition is the change of the read-out against control, counted positive when it falls. Broadly, the melting point is the temperature, or range, at which the solid turns liquid.

One data set addresses MMP-13 (Homo sapiens, UniProt P45452). The data set can be described thus: MMP-13 inhibition (thiopeptide or fluorescent peptide substrate). Type of data set: biochemical. The note with it: read-out: MMP-13 IC50.
Data set [1] deals with TNF-α converting enzyme (TACE) (Homo sapiens, UniProt P78536). The data set can be described thus: TACE inhibition (fluorescent peptidyl substrate). Type of data set: biochemical. Conditions: read-out: TACE IC50.
TNF-α converting enzyme (TACE), sequence (P78536 215-824, species assumed): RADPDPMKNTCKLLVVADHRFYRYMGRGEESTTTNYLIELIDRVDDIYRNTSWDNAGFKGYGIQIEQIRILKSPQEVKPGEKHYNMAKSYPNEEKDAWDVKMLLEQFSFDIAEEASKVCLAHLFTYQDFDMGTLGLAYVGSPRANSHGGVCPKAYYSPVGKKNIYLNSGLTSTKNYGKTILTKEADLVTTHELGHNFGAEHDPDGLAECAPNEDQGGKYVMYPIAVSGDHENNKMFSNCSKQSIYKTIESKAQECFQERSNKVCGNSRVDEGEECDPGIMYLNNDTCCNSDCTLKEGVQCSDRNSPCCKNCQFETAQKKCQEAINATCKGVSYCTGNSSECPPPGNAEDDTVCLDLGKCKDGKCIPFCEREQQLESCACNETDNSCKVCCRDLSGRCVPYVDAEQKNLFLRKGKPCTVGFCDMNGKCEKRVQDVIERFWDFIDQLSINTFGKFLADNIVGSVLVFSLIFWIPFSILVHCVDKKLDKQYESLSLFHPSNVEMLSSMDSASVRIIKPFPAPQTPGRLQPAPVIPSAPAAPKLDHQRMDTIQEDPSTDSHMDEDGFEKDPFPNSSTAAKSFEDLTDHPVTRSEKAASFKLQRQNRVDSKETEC
Experimental: Using 96-well black microtiter plates, each well receives a solution composed of 10 μL TACE (final concentration 1 μg/mL), 70 μL Tris buffer, pH 7.4 containing 10% glycerol (final concentration 10 mM), and 10 μL of test compound solution in DMSO (final concentration 1 μM, DMSO concentration <1%) and incubated for 10 minutes at room temperature.
The reaction is read (excitation 340 nm, emission 420 nm) for 10 min. and the increase in fluorescence over time is plotted as a linear line. The slope of the line is calculated and represents the reaction rate.
The linearity of the reaction rate is confirmed (r^2>0.85). The mean (x±sem) of the control rate is calculated and compared for statistical significance (p<0.05) with drug-treated rates using Dunnett's multiple comparison test.
In another data set the test system is THP-1 cells. In words: THP-1 soluble protein assay, soluble TNF-α (ELISA). Type of data set: cell-based, human. The note with it: for inhibition at 3 µM: Homo sapiens. (In general: An ELISA detects its analyte on a solid surface through an enzyme-linked reagent.)
The next data set deals with MMP-9 (Homo sapiens, UniProt P14780). In words: MMP-9 inhibition (thiopeptide or fluorescent peptide substrate). Type of data set: biochemical. The note with it: read-out: MMP-9 IC50.
MMP-9, sequence (P14780 94-707): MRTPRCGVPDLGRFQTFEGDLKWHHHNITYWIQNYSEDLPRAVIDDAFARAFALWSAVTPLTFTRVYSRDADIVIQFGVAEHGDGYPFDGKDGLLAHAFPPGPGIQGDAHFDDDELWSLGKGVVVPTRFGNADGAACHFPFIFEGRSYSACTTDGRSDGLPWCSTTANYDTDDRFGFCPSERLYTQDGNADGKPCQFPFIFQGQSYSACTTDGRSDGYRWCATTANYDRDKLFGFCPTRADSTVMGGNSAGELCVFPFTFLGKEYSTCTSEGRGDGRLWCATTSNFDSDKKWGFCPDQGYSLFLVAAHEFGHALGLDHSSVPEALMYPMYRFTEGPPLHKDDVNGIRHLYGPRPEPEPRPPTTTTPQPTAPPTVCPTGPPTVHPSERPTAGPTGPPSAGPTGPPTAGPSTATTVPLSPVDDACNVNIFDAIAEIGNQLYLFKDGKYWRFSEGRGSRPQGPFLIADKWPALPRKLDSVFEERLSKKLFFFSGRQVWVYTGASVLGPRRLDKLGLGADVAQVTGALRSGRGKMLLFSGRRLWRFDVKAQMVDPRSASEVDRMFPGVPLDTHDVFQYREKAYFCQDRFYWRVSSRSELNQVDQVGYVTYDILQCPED
The target of the next data set is T1, MMP-1 (Homo sapiens, UniProt P03956).
T1 sequence (P03956 100-469): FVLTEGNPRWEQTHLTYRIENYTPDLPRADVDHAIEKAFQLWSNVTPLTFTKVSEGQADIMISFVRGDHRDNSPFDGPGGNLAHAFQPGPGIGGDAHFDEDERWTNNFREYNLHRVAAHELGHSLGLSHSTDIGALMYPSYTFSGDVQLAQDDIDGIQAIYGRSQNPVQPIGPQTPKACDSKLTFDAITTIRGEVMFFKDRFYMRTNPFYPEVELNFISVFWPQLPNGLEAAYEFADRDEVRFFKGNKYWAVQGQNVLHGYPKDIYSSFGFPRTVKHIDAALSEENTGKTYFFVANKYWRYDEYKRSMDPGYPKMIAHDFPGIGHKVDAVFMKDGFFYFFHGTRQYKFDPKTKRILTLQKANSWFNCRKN
The data set can be described thus: MMP-1 inhibition (thiopeptide or fluorescent peptide substrate). Type of data set: biochemical. Conditions: read-out: MMP-1 IC50.

The mark [2] stands for this setting: THP-1, 3 μM, THP-1 cells, read-out: THP % Inhibition @ 3 μM.

Experimental for MMP-13: (§1) The enzyme activity is measured by the rate of the color increase. The thiopeptide substrate is made up fresh as a 20 mM stock in 100% DMSO and the DTNB is dissolved in 100% DMSO as a 100 mM stock and stored in the dark at room temperature. Both the substrate and DTNB are diluted together to 1 mM with substrate buffer (50 mM HEPES pH 7.5, 5 mM CaCl2) before use. The stock of enzyme is diluted with buffer (50 mM HEPES, pH 7.5, 5 mM CaCl2, 0.02% Brij) to the desired final concentration.
(§2) Alternatively, a fluorescent peptide substrate is used. In this test procedure, the peptide substrate contains a fluorescent group and a quenching group. Upon cleavage of the substrate by an MMP, the fluorescence that is generated is quantitated on the fluorescence plate reader. The assay is run in HCBC assay buffer (50 mM HEPES, pH 7.0, 5 mM Ca^+2, 0.02% Brij, 0.5% Cysteine), with human recombinant MMP-1, MMP-9, or MMP-13. […] For the assay, substrate and enzymes are diluted in HCBC buffer to the desired concentrations. Compounds are added to the 96 well plate containing enzyme and the reaction is started by the addition of substrate.
(§3) For either the thiopeptide or fluorescent peptide test procedures, the slope of the line is calculated and represents the reaction rate. The linearity of the reaction rate is confirmed (r^2>0.85). The mean (x±sem) of the control rate is calculated and compared for statistical significance (p<0.05) with drug-treated rates using Dunnett's multiple comparison test.
Experimental for MMP-9: as §1, §2, §3
Experimental for THP-1 cells: Each vial of cells are cultured for about two weeks prior to being used for an assay and then are used for only 4 to 6 weeks to screen compounds.
Cell exposure to DMSO was limited to 0.1% final concentration. […] Plates are placed into an incubator set at 5% CO2 and at 37° C. After 4 hours of incubation, 300 ml/well of tissue culture supernatant (TCS) is removed for use in an TNF-α ELISA.
Percent change in each soluble protein evaluated from the “vehicle positive control” was calculated for each compound concentration with the following formula:
% Change=pg/ml (compound)−pg/ml (veh pos control)/(veh pos control)−pg/ml (veh neg control)×100
For the soluble protein (TNF-α, p75/80, p55/60, IL-8) studies under stimulated conditions, the mean pg/ml of duplicate wells were determined and the results expressed as percent change from “vehicle positive control”.

With “3-(Benzylthio)-2-[[[4-(2-butynyloxy)phenyl]sulfonyl]methylamino]-N-hydroxypropanamide [Example 156]”, the half-inhibitory concentration (IC50) on MMP-13 came to 4.5 nM; in data set [1] it was 4.8 nM. The “THP % Inhibition @ 3 μM” value in the data set with THP-1 cells (THP-1 cells) is reported as 75%.
Consider `CC#CCOc1ccc(S(=O)(=O)N(CC(=O)NO)Cc2cccnc2)cc1` [Example 23, 2-[(4-but-2-ynyloxy-Benzenesulfonyl)-pyridin-3-ylmethyl-amino]-N-hydroxyacetamide Hydrochloride], for which the inhibition at 3 µM in the data set with THP-1 cells (THP-1, read-out: THP % Inhibition @ 3 μM) was found to be 63%.
On to `CC#CCOc1ccc(S(=O)(=O)NC(C)(C)C(=O)NO)cc1` [Example 35, 2-(4-but-2-ynyloxy-Benzenesulfonylamino)-N-hydroxy-2-methyl-propionaiwde], for which the 50% inhibitory concentration (IC50) on MMP-9 came out at 1380 nM; on MMP-13 it was 396 nM; in data set [1], 12.9 nM. In addition, the inhibition at 3 µM in the data set with THP-1 cells (setting [2]) was 9%.
`CC#CCOc1ccc(S(=O)(=O)N(C)C(C(=O)NO)C(C)(C)SCCN(CC)CC)cc1` (centres unmarked) [Example 142, 2-({[4-(2-Butynyloxy)phenyl]sulfonyl)(methyl)amino]-N-hydroxy-3-methyl-3-{[2-(diethylamino)ethyl]sulfanyl}butanamide] gave a melting point of 55 to 57 °C. On MMP-1, the 50% inhibitory concentration (IC50) was found to be 72 nM. For the same compound, at MMP-9, the IC50 is 10 nM. Further, the IC50 on MMP-13 was 14 nM. In data set [1], the IC50 was found to be 131 nM.
Consider `CC#CCOc1ccc(S(=O)(=O)N(C)C(C(=O)NO)C(C)(C)SCCCN2CCOCC2)cc1` (centres unmarked) [Example 146], for which the melting point lay in the range of 48 to 52 °C. Also, the half-inhibitory concentration (IC50) at MMP-1 turned out to be 13 nM. Moreover, the IC50 at MMP-9 was determined as 5.3 nM. Also, the half-maximal inhibitory concentration (IC50) on MMP-13 was found to be 3.6 nM. For the same compound, the 50% inhibitory concentration (IC50) in data set [1] was found to be 132 nM.
For the compound `CC#CCOc1ccc(S(=O)(=O)N(C)C(C(=O)NO)C(C)(C)SCCCN2CCN(C)CC2)cc1` (centres unmarked) [Example 147, 2-({[4-(2-Butynyloxy)phenyl]sulfonyl)(methyl)amino]-N-hydroxy-3 Methyl-3-{[2(4-methyl-1-ethyl-1-piperazinyl)propyl]sulfanyl}butanamide], the melting point lay within 58 to 62 °C. The IC50 at MMP-1 was found to be 21 nM. Also, the IC50 at MMP-9 worked out at 5.3 nM. For the same compound, the half-inhibitory concentration (IC50) at MMP-13 is 5.3 nM. Further, the IC50 in data set [1] amounted to 157 nM.
For `CC#CCOc1ccc(S(=O)(=O)N(C)C(C(=O)NO)C(C)(C)SC)cc1` (centres unmarked) [Example 149, 2-[(4-but-2-ynyloxy-Benenesulfonyl)-methyl-amino]-N-hydroxy-3-methyl-3-methylsulfanyl-butyramide], the melting point is 132 to 135 °C. Besides, on MMP-1, the IC50 was 17 nM. In addition, the 50% inhibitory concentration (IC50) on MMP-9 came out at 13 nM. In addition, the IC50 at MMP-13 worked out at 4.6 nM. In data set [1], the IC50 amounted to 29 nM.
For `CC#CCOc1ccc(S(=O)(=O)N(C)C(C(=O)NO)C(C)(C)SCC)cc1` (centres unmarked) [Example 150, 2-[(4-but-2-ynyloxy-Benenesulfonyl)-methyl-amino]-N-hydroxy-3-methyl-3-ethylsulfanyl-butyramide], the values for the IC50 (at MMP-1; on MMP-13; in data set [1]) were 25 nM, 9.3 nM and 51 nM, respectively. The “THP % Inhibition @ 3 μM” value in the data set on THP-1 cells (THP-1 cells) was determined as 86%.
`CC#CCOc1ccc(S(=O)(=O)N(C)C(C(=O)NO)C(C)(C)SCc2ccccc2)cc1` (centres unmarked) [Example 153, 2-[(4-but-2-ynyloxy-Benenesulfonyl)-methyl-amino]-N-hydroxy-3-methyl-3-benzylsulfanyl-butyramide]: the melting point lay within 156 to 158 °C. In addition, on MMP-1, the IC50 was determined as 13 nM. Moreover, the 50% inhibitory concentration (IC50) on MMP-9 was 5.5 nM. Besides, the IC50 at MMP-13 was 2 nM. For the same compound, the IC50 in data set [1] is 160 nM.
For `CC#CCOc1ccc(S(=O)(=O)N(Cc2cccnc2)C(CSCc2ccccc2)C(=O)NO)cc1` (centres unmarked) [Example 157, 3-(Benzylthio)-2-[[[4-(2-butynyloxy)phenyl]sulfonyl]pyridin-3-ylmethylamino]-N-hydroxypropanamide], in that order: 74 to 78 °C, 111 nM, 32 nM, 3.8 nM and 98 nM.
For the compound `CC#CCOc1ccc(S(=O)(=O)N[C@@H](C(=O)NO)C(C)(C)SCCCO)cc1` [Example 171, (2S)-2-({[4-(2-Butynyloxy)phenyl]sulfonyl}amino)-N-hydroxy-3-[(3-hydroxypropyl)sulfanyl]-3-methylbutanamide], the IC50 amounted to 2140 nM at MMP-1, 36 nM on MMP-13 and 25 nM in data set [1]. In addition, the inhibition at 3 µM in the data set with THP-1 cells (setting [2]) was 67%.
For `CC#CCOc1ccc(S(=O)(=O)N[C@H](CSCCCO)C(=O)NO)cc1` [Example 172, (2S)-2-({[4-(2-Butynyloxy)phenyl]sulfonyl}amino)-N-hydroxy-3-[(3-hydroxypropyl)sulfanyl]-3-propanamide], in that order: > 1000 nM, 169 nM, 11 nM and 70%.
For the compound `CC#CCOc1ccc(S(=O)(=O)N(C)C(C(=O)NO)c2ccc(OCCN(C)C(=O)OC(C)(C)C)cc2)cc1` (centres unmarked) [Example 191, tert-Butyl(2-{4-[1-({[4-(2-Butynyloxy)phenyl]sulfonyl}(methyl)amino)-2-(hydroxyamino)-2-oxoethyl)phenoxy]ethyl)-(methyl)carbamate], the melting point was 62 °C (dec.). Besides, on MMP-1, the concentration for half-maximal inhibition (IC50) came out at 1150 nM. Besides, the IC50 on MMP-9 was 37 nM. Moreover, the IC50 at MMP-13 is 60 nM. In addition, the concentration for half-maximal inhibition (IC50) in data set [1] turned out to be 64 nM.
For `CC#CCOc1ccc(S(=O)(=O)NC(C(=O)NO)c2ccc(OCCN(C)C(=O)OC(C)(C)C)cc2)cc1` (centres unmarked) [Example 203, tert-Butyl 4-(2-{4-[1-({[4-(2-Butynyloxy)phenyl]sulfonyl}amino)-2-(hydroxyamino)-2-oxoethyl)phenoxy]ethyl)-(methyl)carbamate], in that order: 90 to 92 °C, > 10000 nM, 859 nM, 126 nM and 49 nM.
As to `CC#CCOc1ccc(S(=O)(=O)N2CCSC3(CCCCC3)C2C(=O)NO)cc1` (centres unmarked) [Example 237], the half-inhibitory concentration (IC50) at MMP-1 (Table 9) turned out to be 62 nM; on MMP-13 (Table 9), 12 nM; in data set [1] (Table 9), 212 nM. Also, in the data set on THP-1 cells (Table 9), the “THP % Inhibition @ 3 μM” value came to 90%.
As for `CC#CCOc1ccc(S(=O)(=O)N2CCSC(CC)(CC)C2C(=O)NO)cc1` (centres unmarked) [Example 238], the half-inhibitory concentration (IC50) on MMP-1 (Table 9) was determined as 38 nM; on MMP-13 (Table 9), 6.8 nM; in data set [1] (Table 9), 228 nM. In the data set with THP-1 cells (Table 9), the “THP % Inhibition @ 3 μM” value is 73%.
Turning to `CC1(C)SCCN(S(=O)(=O)c2ccc(OCC#CCO)cc2)[C@H]1C(=O)NO` [Example 260, (3S)-N-Hydroxy-4-({4-[(4-hydroxy-2-butynyl)oxy]phenyl}sulfonyl)-2,2-dimethyl-3-thiomorpholine Carboxamide], the IC50 at MMP-1 (Table 10) came to 33 nM; on MMP-13 (Table 10), 8.1 nM; in data set [1] (Table 10), 20 nM. In addition, the inhibition at 3 µM in the data set with THP-1 cells (THP-1, 3 μM, Table 10, read-out: THP % Inhibition @ 3 μM) was determined as 95%.
As for `CC#CCOc1ccc(S(=O)(=O)N2C[C@@H](CNC(=O)OC(C)(C)C)SC(C)(C)[C@@H]2C(=O)NO)cc1` [Example 273, tert-Butyl{(2R,5S)-4-{[4-(2-butynyloxy)phenyl]sulfonyl}-5-[(hydroxyamino)carbonyl]-6,6-dimethylthiomorpholinyl}methylcarbamate], the results for the 50% inhibitory concentration (IC50) (at MMP-9 (Table 11); in data set [1] (Table 11)) were 61 nM and 87 nM, respectively. Moreover, in the data set with THP-1 cells (THP-1, 3 μM, Table 11, read-out: THP % Inhibition @ 3 μM), the inhibition at 3 µM was 90%.
In the case of `CC#CCOc1ccc(S(=O)(=O)N2C[C@H](CNC(=O)OC(C)(C)C)SC(C)(C)[C@@H]2C(=O)NO)cc1` [Example 274, tert-Butyl{(2S,5S)-4-{[4-(2-butynyloxy)phenyl]sulfonyl}-5-[(hydroxyamino)carbonyl]-6,6-dimethylthiomorpholinyl}methylcarbamate], the IC50 on MMP-9 (Table 11) turned out to be 107 nM; in data set [1] (Table 11), 59 nM. Moreover, in the data set on THP-1 cells (Table 11), the “THP % Inhibition @ 3 μM” value was determined as 84%.
Regarding `CC#CCOc1ccc(S(=O)(=O)NC2(C(=O)NO)CCN(C(=O)OC(C)(C)C)CC2)cc1` [Example 287, tert-Butyl 4-({[4-(2-Butynyloxy)phenyl]sulfonyl}amino)-4-[(hydroxyamino)carbonyl]-1-piperidinecarboxylate], the results for the IC50 (at MMP-1; on MMP-13; in data set [1]) were > 10000 nM, 530 nM and 37 nM, respectively. For the same compound, in the data set with THP-1 cells (setting [2]), the inhibition at 3 µM came to 60%.
For `CC#CCOc1ccc(S(=O)(=O)NC2(C(=O)NO)CCNCC2)cc1` [Example 288, 4-({[4-(2-Butynyloxy)phenyl]sulfonyl}amino)-N-hydroxy-4-piperidinecarboxamide], in that order: > 10000 nM, > 10000 nM, 50 nM and 25%.
